From patent US4472304A, “(Amido)N-substituted bleomycins, salts thereof and process for preparation thereof” (Nippon Kayaku Kabushiki Kaisha, priority 1981, dated 1984) come the findings set out here.

The test system of experiment [1] is Mycobacterium smegmatis ATCC 607. Description: Antimicrobial activity against Mycobacterium smegmatis ATCC 607 (agar plate-cylinder). The class given is cell-based. As to conditions: standard bleomycin A2 (copper-free) assumed 1,000 mcg potency/mg. The method, then:
(§1) 2. ANT[…] MYC[…] ATCC 607 AND BACILLUS SUBTILIS
(§2) The antimicrobial activity was tested against the captioned test organisms by the method of agar plate-cylinder. The activity was recorded on the assumption that the activity of standard sample of bleomycin A2 (copper-free form) is 1,000 mcg poteney/mg.

The next experiment concerns Bacillus subtilis. Description: Antimicrobial activity against Bacillus subtilis (agar plate-cylinder). It counts as cell-based. As to conditions: standard bleomycin A2 (copper-free) assumed 1,000 mcg potency/mg. The method, then:
as §1, §2

Regarding `Cc1c(N)nc(C(CC(N)=O)NCC(N)C(=O)NC(C)C)nc1C(=O)NC(C(=O)NC(C)C(O)C(C)C(=O)NC(C(=O)NCCc1nc(-c2nc(C(=O)NCCc3c[nH]cn3)cs2)cs1)C(C)O)C(OC1OC(CO)C(O)C(O)C1OC1OC(CO)C(O)C(OC(N)=O)C1O)c1cnc[nH]1` (centres unmarked) [Compound 3, 2-(4'-Imidazolyl)ethylamino-(amido)N--[isopropyl]-BLM], the “Antimicrobial potency of Cu-free compound against Mycobacterium smegmatis ATCC 607” value in experiment [1] is 2778 mcg potency/mg. Moreover, the “Antimicrobial potency of Cu-free compound against Bacillus subtilis” value with Bacillus subtilis is given as 593 mcg potency/mg.

In the case of `CCCCCCCCCCCCNC(=O)C(N)CNC(CC(N)=O)c1nc(N)c(C)c(C(=O)NC(C(=O)NC(C)C(O)C(C)C(=O)NC(C(=O)NCCc2nc(-c3nc(C(=O)NCCCCNC(=N)N)cs3)cs2)C(C)O)C(OC2OC(CO)C(O)C(O)C2OC2OC(CO)C(O)C(OC(N)=O)C2O)c2cnc[nH]2)n1` (centres unmarked) [Compound 13, 4-Guanidinobutylamino-(amido)N--[lauryl]-BLM], the “Antimicrobial potency of Cu-free compound against Mycobacterium smegmatis ATCC 607” value in experiment [1] is recorded as 7650 mcg potency/mg. Besides, the “Antimicrobial potency of Cu-free compound against Bacillus subtilis” value in the experiment with Bacillus subtilis worked out at 660 mcg potency/mg.

Consider `CCCCN(CCCC)CCCNC(=O)C(N)CNC(CC(N)=O)c1nc(N)c(C)c(C(=O)NC(C(=O)NC(C)C(O)C(C)C(=O)NC(C(=O)NCCc2nc(-c3nc(C(=O)NCCCN(C)CCCNCc4ccc(C#N)cc4)cs3)cs2)C(C)O)C(OC2OC(CO)C(O)C(O)C2OC2OC(CO)C(O)C(OC(N)=O)C2O)c2cnc[nH]2)n1` (centres unmarked) [Compound 61, 3-{N--methyl-N--[3-(p-cyanobenzylamino)propyl]amino}-propylamino-(amido)N--[3-(di-n-butylamino)propyl]-BLM], for which the “Antimicrobial potency of Cu-free compound against Mycobacterium smegmatis ATCC 607” value in experiment [1] is reported as 14730 mcg potency/mg. In addition, the “Antimicrobial potency of Cu-free compound against Bacillus subtilis” value with Bacillus subtilis was determined as 4755 mcg potency/mg.

Consider `Cc1c(N)nc(C(CC(N)=O)NCC(N)C(=O)NC(Cc2ccccc2)c2ccccc2)nc1C(=O)NC(C(=O)NC(C)C(O)C(C)C(=O)NC(C(=O)NCCc1nc(-c2nc(C(=O)NCCCN(C)CCCNCc3ccc(Cl)cc3)cs2)cs1)C(C)O)C(OC1OC(CO)C(O)C(O)C1OC1OC(CO)C(O)C(OC(N)=O)C1O)c1cnc[nH]1` (centres unmarked) [Compound 41, 3-{N--methyl-N--[3-(p-chlorobenzyl)aminopropyl]amino}propyl-amino-(amido)N--[1,2-diphenylethyl]-BLM], for which, in experiment [1], the “Antimicrobial potency of Cu-free compound against Mycobacterium smegmatis ATCC 607” value came out at 23342 mcg potency/mg. Besides, the “Antimicrobial potency of Cu-free compound against Bacillus subtilis” value with Bacillus subtilis worked out at 521 mcg potency/mg.

With `Cc1c(N)nc(C(CC(N)=O)NCC(N)C(=O)NCCN)nc1C(=O)NC(C(=O)NC(C)C(O)C(C)C(=O)NC(C(=O)NCCc1nc(-c2nc(C(=O)NCCc3c[nH]cn3)cs2)cs1)C(C)O)C(OC1OC(CO)C(O)C(O)C1OC1OC(CO)C(O)C(OC(N)=O)C1O)c1cnc[nH]1` (centres unmarked) [Compound 6, 2-(4'-Imidazolyl)ethylamino-(amido)N--[2-aminoethyl]-BLM], the “Antimicrobial potency of Cu-free compound against Mycobacterium smegmatis ATCC 607” value in experiment [1] is 2396 mcg potency/mg. The “Antimicrobial potency of Cu-free compound against Bacillus subtilis” value in the experiment with Bacillus subtilis was found to be 4453 mcg potency/mg.

Turning to `Cc1c(N)nc(C(CC(N)=O)NCC(N)C(=O)NC(C)CCCC(C)C)nc1C(=O)NC(C(=O)NC(C)C(O)C(C)C(=O)NC(C(=O)NCCc1nc(-c2nc(C(=O)NCCCN(C)CCCNCc3ccc(Cl)cc3)cs2)cs1)C(C)O)C(OC1OC(CO)C(O)C(O)C1OC1OC(CO)C(O)C(OC(N)=O)C1O)c1cnc[nH]1` (centres unmarked) [Compound 42, 3-{N--methyl-N--[3-(p-chlorobenzyl)aminopropyl]amino}propyl-amino-(amido)N--[1,5-dimethylhexyl]-BLM], the “Antimicrobial potency of Cu-free compound against Mycobacterium smegmatis ATCC 607” value in experiment [1] was determined as 31834 mcg potency/mg. In addition, the “Antimicrobial potency of Cu-free compound against Bacillus subtilis” value in the experiment with Bacillus subtilis worked out at 933 mcg potency/mg.

`Cc1c(N)nc(C(CC(N)=O)NCC(N)C(=O)NC(Cc2ccccc2)c2ccccc2)nc1C(=O)NC(C(=O)NC(C)C(O)C(C)C(=O)NC(C(=O)NCCc1nc(-c2nc(C(=O)NCCCCNC(=N)N)cs2)cs1)C(C)O)C(OC1OC(CO)C(O)C(O)C1OC1OC(CO)C(O)C(OC(N)=O)C1O)c1cnc[nH]1` (centres unmarked) [Compound 16, 4-Guanidinobutylamino-(amido)N--[1',2'-diphenylethyl]-BLM]: in experiment [1], the “Antimicrobial potency of Cu-free compound against Mycobacterium smegmatis ATCC 607” value stood at 24480 mcg potency/mg. Besides, the “Antimicrobial potency of Cu-free compound against Bacillus subtilis” value in the experiment with Bacillus subtilis was 520 mcg potency/mg.

As for `CCCCCCCCNC(=O)C(N)CNC(CC(N)=O)c1nc(N)c(C)c(C(=O)NC(C(=O)NC(C)C(O)C(C)C(=O)NC(C(=O)NCCc2nc(-c3nc(C(=O)NCCCCNC(=N)N)cs3)cs2)C(C)O)C(OC2OC(CO)C(O)C(O)C2OC2OC(CO)C(O)C(OC(N)=O)C2O)c2cnc[nH]2)n1` (centres unmarked) [Compound 10, 4-Guanidinobutylamino-(amido)N--[octyl]-BLM], in experiment [1], the “Antimicrobial potency of Cu-free compound against Mycobacterium smegmatis ATCC 607” value came out at 33700 mcg potency/mg. Further, the “Antimicrobial potency of Cu-free compound against Bacillus subtilis” value with Bacillus subtilis was 1500 mcg potency/mg.

For `Cc1c(N)nc(C(CC(N)=O)NCC(N)C(=O)NCCCNC(C)c2ccccc2)nc1C(=O)NC(C(=O)NC(C)C(O)C(C)C(=O)NC(C(=O)NCCc1nc(-c2nc(C(=O)NCCCN(C)CCCNCc3ccc(C#N)cc3)cs2)cs1)C(C)O)C(OC1OC(CO)C(O)C(O)C1OC1OC(CO)C(O)C(OC(N)=O)C1O)c1cnc[nH]1` [Compound 63, 3-{N--methyl-N--[3-(p-cyanobenzylamino)propyl]amino]propylamino-(amido)N--[(3-((S)-1'-phenylethylamino)propyl]-BLM], in experiment [1], the “Antimicrobial potency of Cu-free compound against Mycobacterium smegmatis ATCC 607” value was 21877 mcg potency/mg. The “Antimicrobial potency of Cu-free compound against Bacillus subtilis” value in the experiment with Bacillus subtilis was 11056 mcg potency/mg.

In the case of `Cc1c(N)nc(C(CC(N)=O)NCC(N)C(=O)NC(c2ccccc2)c2ccccc2)nc1C(=O)NC(C(=O)NC(C)C(O)C(C)C(=O)NC(C(=O)NCCc1nc(-c2nc(C(=O)NCCCCNC(=N)N)cs2)cs1)C(C)O)C(OC1OC(CO)C(O)C(O)C1OC1OC(CO)C(O)C(OC(N)=O)C1O)c1cnc[nH]1` (centres unmarked) [Compound 15, 4-Guanidinobutylamino-(amido)N--[diphenylmethyl]-BLM], the “Antimicrobial potency of Cu-free compound against Mycobacterium smegmatis ATCC 607” value in experiment [1] is 42320 mcg potency/mg. In addition, the “Antimicrobial potency of Cu-free compound against Bacillus subtilis” value in the experiment with Bacillus subtilis is 980 mcg potency/mg.

Turning to `CCCCCCCCNC(=O)C(N)CNC(CC(N)=O)c1nc(N)c(C)c(C(=O)NC(C(=O)NC(C)C(O)C(C)C(=O)NC(C(=O)NCCc2nc(-c3nc(C(=O)NCCCN(C)CCCNCc4ccc(Cl)cc4)cs3)cs2)C(C)O)C(OC2OC(CO)C(O)C(O)C2OC2OC(CO)C(O)C(OC(N)=O)C2O)c2cnc[nH]2)n1` (centres unmarked) [Compound 40, 3-{N--methyl-N--[3-(p-chlorobenzyl)aminopropyl]amino}-propylamino-(amido)N--[octyl]-BLM], the “Antimicrobial potency of Cu-free compound against Mycobacterium smegmatis ATCC 607” value in experiment [1] stood at 38200 mcg potency/mg. In addition, the “Antimicrobial potency of Cu-free compound against Bacillus subtilis” value in the experiment with Bacillus subtilis worked out at 1808 mcg potency/mg.

Regarding `Cc1c(N)nc(C(CC(N)=O)NCC(N)C(=O)NC2CCN(Cc3ccccc3)CC2)nc1C(=O)NC(C(=O)NC(C)C(O)C(C)C(=O)NC(C(=O)NCCc1nc(-c2nc(C(=O)NCCCNC(C)c3ccccc3)cs2)cs1)C(C)O)C(OC1OC(CO)C(O)C(O)C1OC1OC(CO)C(O)C(OC(N)=O)C1O)c1cnc[nH]1` [Compound 35, 3-((S)-1'-phenylethylamino)propylamino-(amido)N--[N--benzyl-piperazin-4-yl]-BLM], the “Antimicrobial potency of Cu-free compound against Mycobacterium smegmatis ATCC 607” value in experiment [1] was determined as 18537 mcg potency/mg. In the experiment on Bacillus subtilis, the “Antimicrobial potency of Cu-free compound against Bacillus subtilis” value is given as 2159 mcg potency/mg.

As to `Cc1c(N)nc(C(CC(N)=O)NCC(N)C(=O)NCCCNC(C)c2ccccc2)nc1C(=O)NC(C(=O)NC(C)C(O)C(C)C(=O)NC(C(=O)NCCc1nc(-c2nc(C(=O)NCCCCNC(=N)N)cs2)cs1)C(C)O)C(OC1OC(CO)C(O)C(O)C1OC1OC(CO)C(O)C(OC(N)=O)C1O)c1cnc[nH]1` [Compound 11, 4-Guanidinobutylamino-(amido)N--[3-((S)-1'-phenylethyl)amino-propyl]-BLM], the “Antimicrobial potency of Cu-free compound against Mycobacterium smegmatis ATCC 607” value in experiment [1] is listed as 15729 mcg potency/mg. Besides, the “Antimicrobial potency of Cu-free compound against Bacillus subtilis” value in the experiment on Bacillus subtilis was determined as 7036 mcg potency/mg.

As for `Cc1c(N)nc(C(CC(N)=O)NCC(N)C(=O)NCC(F)(F)F)nc1C(=O)NC(C(=O)NC(C)C(O)C(C)C(=O)NC(C(=O)NCCc1nc(-c2nc(C(=O)NCCCCNC(=N)N)cs2)cs1)C(C)O)C(OC1OC(CO)C(O)C(O)C1OC1OC(CO)C(O)C(OC(N)=O)C1O)c1cnc[nH]1` (centres unmarked) [Compound 9, 4-Guanidinobutylamino-(amido)N--[2',2',2'-trifluoroethyl]-BLM], the “Antimicrobial potency of Cu-free compound against Mycobacterium smegmatis ATCC 607” value in experiment [1] is on record as 3990 mcg potency/mg. In addition, the “Antimicrobial potency of Cu-free compound against Bacillus subtilis” value in the experiment on Bacillus subtilis was found to be 730 mcg potency/mg.

For `Cc1c(N)nc(C(CC(N)=O)NCC(N)C(=O)NC(C)C)nc1C(=O)NC(C(=O)NC(C)C(O)C(C)C(=O)NC(C(=O)NCCc1nc(-c2nc(C(=O)NCCCCNC(=N)N)cs2)cs1)C(C)O)C(OC1OC(CO)C(O)C(O)C1OC1OC(CO)C(O)C(OC(N)=O)C1O)c1cnc[nH]1` (centres unmarked) [Compound 7, 4-Guanidinobutylamino-(amido)N--[isopropyl]-BLM], in experiment [1], the “Antimicrobial potency of Cu-free compound against Mycobacterium smegmatis ATCC 607” value turned out to be 6425 mcg potency/mg. In addition, the “Antimicrobial potency of Cu-free compound against Bacillus subtilis” value in the experiment on Bacillus subtilis is recorded as 1950 mcg potency/mg.

Take `CCCCN(CCCC)CCCNC(=O)C(N)CNC(CC(N)=O)c1nc(N)c(C)c(C(=O)NC(C(=O)NC(C)C(O)C(C)C(=O)NC(C(=O)NCCc2nc(-c3nc(C(=O)NCCCN(C)CCCNCCc4ccc(Cl)cc4)cs3)cs2)C(C)O)C(OC2OC(CO)C(O)C(O)C2OC2OC(CO)C(O)C(OC(N)=O)C2O)c2cnc[nH]2)n1` (centres unmarked) [Compound 46, 3-{N--methyl-N--[3-(2-(p-chlorophenyl)ethyl)aminopropyl]amino}-propylamino-(amido)N--[3-(di-n-butylamino)propyl]-BLM]: in experiment [1], the “Antimicrobial potency of Cu-free compound against Mycobacterium smegmatis ATCC 607” value is recorded as 31690 mcg potency/mg. For the same compound, the “Antimicrobial potency of Cu-free compound against Bacillus subtilis” value in the experiment on Bacillus subtilis was found to be 3690 mcg potency/mg.
